pEC50: −log10 of the molar value. Several values for one entry are separate records, joined by “and”; a condition that tells them apart may be missing. Equal entries are not always repeated. Activity calls are given as the source filed them. The calls are words filed in the database; no cut-off is given here.
Columns and labels:
L1210 [1] = assay: In vitro inhibition against replication of L1210 murine cells; type: functional; details: Mus musculus, read-out: ED50 (the source's name)
Sarcoma-180 [2] = assay: In vitro inhibition against replication of Sarcoma-80 cells; type: functional; details: Mus musculus, read-out: ED50 (the source's name)
[3] = biological target: Deoxycytidine kinase (Mus musculus) (UniProt P43346); assay: Inhibitory activity against deoxycytidine kinase from L1210 cells; type: cell-based; design: concentration or dose not given beside the values; scale not given: the % may be the effect or the level left
Chain of Deoxycytidine kinase (Mus musculus) (P43346 whole entry, looked up): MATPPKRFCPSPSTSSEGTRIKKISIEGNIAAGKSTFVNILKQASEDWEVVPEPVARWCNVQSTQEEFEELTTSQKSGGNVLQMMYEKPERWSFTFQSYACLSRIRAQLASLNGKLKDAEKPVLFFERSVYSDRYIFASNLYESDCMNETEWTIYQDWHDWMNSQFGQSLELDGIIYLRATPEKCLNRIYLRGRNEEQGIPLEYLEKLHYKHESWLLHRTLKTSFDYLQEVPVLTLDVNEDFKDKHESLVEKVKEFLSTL

[4] = biological target: T1, Thymidine kinase, cytosolic (Mus musculus) (UniProt P04184); assay: Inhibitory activity against thymidine kinase (TK) from L1210 cells; type: cell-based; design: concentration or dose not given beside the values
T1 sequence (whole entry): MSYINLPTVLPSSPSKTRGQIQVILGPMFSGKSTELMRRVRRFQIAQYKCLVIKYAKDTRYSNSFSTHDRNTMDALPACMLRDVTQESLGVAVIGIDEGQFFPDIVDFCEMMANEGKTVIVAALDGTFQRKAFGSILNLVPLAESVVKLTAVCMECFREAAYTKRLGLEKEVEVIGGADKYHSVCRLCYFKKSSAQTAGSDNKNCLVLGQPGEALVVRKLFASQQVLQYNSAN

Sarcoma-180 [5] = assay: In vitro inhibition against replication of […] cells; inactive; type: functional, cell-based; details: Mus musculus
L1210 [6] = assay: In vitro inhibition against replication of L1210 murine cells; inactive; type: functional, cell-based; details: Mus musculus

Row | SMILES | pEC50 (L1210 [1]) | pEC50 (Sarcoma-180 [2]) | Activity [3] | Activity [4] | ED50 (Sarcoma-180 [5]) | ED50 (L1210 [6])
1 | N[C@H]1C[C@H](n2ccc(=O)[nH]c2=O)O[C@@H]1CO | 4.74 | 4.30 | 97% and 94% | – | – | –
2 | Cc1cn([C@H]2C[C@@H](N)[C@@H](CF)O2)c(=O)[nH]c1=O | – | – | 91% and 88% | 89% and 83% | inactive | inactive
3 | [N-]=[N+]=N[C@H]1C[C@H](n2cc(F)c(N)nc2=O)O[C@@H]1CO | 4.60 | – | 70% and 61% | 88% and 103% | – | –
4 | [N-]=[N+]=N[C@H]1C[C@H](n2ccc(=O)[nH]c2=O)O[C@@H]1CO | – | – | 92% | – | inactive | inactive
5 | Cc1cn([C@H]2C[C@@H](N=[N+]=[N-])[C@@H](CF)O2)c(=O)[nH]c1=O | – | – | 93% and 89% | 93% and 95% | inactive | inactive
6 | Nc1nc(=O)n([C@H]2C[C@@H](N)[C@@H](CO)O2)cc1F | 5.00 | 6.00 | 82% and 73% | 81% and 70% | – | –
7 | Cc1cn([C@H]2C[C@H](N=[N+]=[N-])[C@@H](CO)O2)c(=O)nc1N | – | – | 62% and 55% | 92% and 81% | inactive | inactive
8 | N[C@@H]1C[C@H](n2cc(I)c(=O)[nH]c2=O)O[C@@H]1CO | 3.40 | – | 87% and 91% | 95% and 71% | – | –
9 | N[C@@H]1C[C@H](n2cc(F)c(=O)[nH]c2=O)O[C@@H]1CO | 4.82 | 6.00 | 93% | 92% and 82% | – | –
10 | Cc1cn([C@H]2C[C@H](N)[C@@H](CO)O2)c(=O)[nH]c1=O | – | – | 96% and 87% | 95% and 72% | – | –
11 | [N-]=[N+]=N[C@H]1C[C@H](n2cc(F)c(=O)[nH]c2=O)O[C@@H]1CO | 4.70 | 4.40 | 94% and 89% | 78% and 71% | – | –
12 | N[C@@H]1C[C@H](n2cc(C(F)(F)F)c(=O)[nH]c2=O)O[C@@H]1CO | 3.82 | 4.00 | 101% and 87% | 81% and 61% | – | –
13 | Cc1cn([C@H]2C[C@H](N=[N+]=[N-])[C@@H](CO)O2)c(=O)[nH]c1=O | – | – | 89% and 84% | – | – | –
14 | O=c1[nH]c(=O)n([C@H]2C[C@H](O)[C@@H](CO)O2)cc1I | – | – | 87% and 97% | – | – | –
15 | [N-]=[N+]=N[C@H]1C[C@H](n2ccc(N)nc2=O)O[C@@H]1CO | – | – | 86% and 78% | 85% and 72% | inactive | inactive
16 | O=c1ccn([C@H]2C[C@H](O)[C@@H](CO)O2)c(=O)[nH]1 | – | – | 88% and 92% | – | – | –
17 | Nc1ccn([C@H]2C[C@H](N)[C@@H](CO)O2)c(=O)n1 | 6.15 | 5.40 | 89% and 85% | 77% and 84% | – | –
18 | [N-]=[N+]=N[C@H]1C[C@H](n2cc(C(F)(F)F)c(=O)[nH]c2=O)O[C@@H]1CO | 3.40 | 4.00 | 91% and 85% | – | – | –
19 | Cc1cn([C@H]2C[C@@H](N)[C@@H](CO)O2)c(=O)nc1N | 4.60 | 4.70 | 90% and 82% | 93% and 80% | – | –

Reference: ChEMBL document CHEMBL1122407, “Synthesis and biological activity of various 3'-azido and 3'-amino analogues of 5-substituted pyrimidine deoxyribonucleosides” (1983)
